Test results from patent US20250206732A1, “COMPOUNDS AND METHODS FOR THE TARGETED DEGRADATION OF KRAS” (Arvinas Operations, Inc., priority 2022, published 2025).

Molecular target: T1, AsPC-1 HiBiT-KRASG12D (Homo sapiens, UniProt P01116, G12D)
T1 construct: insert the HiBiT tag onto the N-terminus of one or more of the endogenous KRAS alleles; endogenous in cells; host or cells: AsPC-1 (ATCC CRL-1682), CRISPR-Cas9 knock-in clone, one tagged allele
Assay: HiBiT degradation assay (G12D), AsPC-1 HiBiT-KRASG12D cells
Type: cell-based
Settings: 24 hours treatment; for Dmax: ASPC1, AsPC-1 HiBiT-KRASG12D cells; for DC50: HiBiT luminescence
Procedure, shortened: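 Steps: treat HiBiT-KRASG12D AsPC-1 cells with compound for 24 hours; add alamar blue to 1× and incubate 4 hours to assess viability; wash with PBS; add HiBiT lytic detection reagent, incubate 45 minutes at room temperature; read luminescence. Viability fluorescence is normalized to DMSO wells.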

T1 sequence (P01116 1-188 isoform P01116-2 G12D): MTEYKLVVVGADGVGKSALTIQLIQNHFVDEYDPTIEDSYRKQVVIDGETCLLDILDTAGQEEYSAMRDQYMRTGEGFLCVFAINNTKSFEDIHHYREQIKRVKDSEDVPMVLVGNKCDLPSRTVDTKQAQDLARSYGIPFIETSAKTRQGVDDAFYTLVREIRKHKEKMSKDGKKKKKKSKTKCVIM

Compound | Dmax (maximum degradation observed) [%] | DC50 (AsPC-1 HiBiT-KRASG12D cells) [µM] | AsPC-1 HiBiT-KRASG12D DMax (AsPC-1 HiBiT-KRASG12D cells, maximum degradation observed)
C#Cc1c(F)ccc2cc(O)cc(-c3ncc4c(N5CC6CCC(C5)N6)nc(OC[C@@]56CCCN5[C@H](COC(=O)N5CCN(c7cc([C@H](C(=O)N8C[C@H](O)C[C@H]8C(=O)N[C@@H](C)c8ccc(-c9scnc9C)cc8)C(C)C)on7)CC5)CC6)nc4c3F)c12 [Compound 58, [(3S,7aS)-7a-{[(4-{3,8-diazabicyclo[3.2.1]octan-3-yl}-7-(8-ethynyl-7-fluoro-3-hydroxynaphthalen-1-yl)-8-fluoropyrido[4,3-d]pyrimidin-2-yl)oxy]methyl}-hexahydro-1H-pyrrolizin-3-yl]methyl 4-{5-[(2R)-1-[(2S,4R)-4-hydroxy-2-{[(1S)-1-[4-(4-methyl-1,3-thiazol-5-yl)phenyl]ethyl]carbamoyl}pyrrolidin-1-yl]-3-methyl-1-oxobutan-2-yl]-1,2-oxazol-3-yl}piperazine-1-carboxylate] | 80 to 100 | < 0.6 | –
CCc1cccc2cc(O)cc(-c3ncc4c(N5CC6CCC(C5)N6)nc(OC[C@@]56CCCN5[C@H](COC(=O)N(C)Cc5cc([C@H](C(=O)N7C[C@H](O)C[C@H]7C(=O)N[C@@H](C)c7ccc(-c8scnc8C)cc7)C(C)C)on5)CC6)nc4c3F)c12 [Compound 90, [(3S,7aS)-7a-{[(4-{3,8-diazabicyclo[3.2.1]octan-3-yl}-7-(8-ethyl-3-hydroxynaphthalen-1-yl)-8-fluoropyrido[4,3-d]pyrimidin-2-yl)oxy]methyl}-hexahydro-1H-pyrrolizin-3-yl]methyl N-({5-[(2R)-1-[(2S,4R)-4-hydroxy-2-{[(1S)-1-[4-(4-methyl-1,3-thiazol-5-yl)phenyl]ethyl]carbamoyl}pyrrolidin-1-yl]-3-methyl-1-oxobutan-2-yl]-1,2-oxazol-3-yl}methyl)-N-methylcarbamate] | 80 to 100 | < 0.6 | –
C#Cc1c(F)ccc2cc(O)cc(-c3ncc4c(N5CC6CCC(C5)N6)nc(OC[C@@]56CCCN5[C@H](COc5cc([C@@H](C(=O)N7C[C@H](O)C[C@H]7C(=O)N[C@@H](C)c7ccc(-c8scnc8C)cc7)C(C)C)on5)CC6)nc4c3F)c12 [Compound 315, (2S,4R)-1-[(2S)-2-[3-[[(3S,8S)-8-[[4-(3,8-diazabicyclo[3.2.1]octan-3-yl)-7-(8-ethynyl-7-fluoro-3-hydroxy-1-naphthyl)-8-fluoro-pyrido[4,3-d]pyrimidin-2-yl]oxymethyl]-1,2,3,5,6,7-hexahydropyrrolizin-3-yl]methoxy]isoxazol-5-yl]-3-methyl-butanoyl]-4-hydroxy-N-[(1S)-1-[4-(4-methylthiazol-5-yl)phenyl]ethyl]pyrrolidine-2-carboxamide] | – | > 3 | –
CCc1cccc2cc(O)cc(-c3ncc4c(N5CC6CCC(C5)N6)nc(OCCN5CCC(CC6CCN(c7cc(C(C(=O)N8C[C@H](O)C[C@H]8C(=O)N[C@@H](C)c8ccc(-c9scnc9C)cc8)C(C)C)on7)CC6)CC5)nc4c3F)c12 (single isomer, unassigned) [Compound 320] | – | < 0.6 | A (80% < A ≤ 100%)
C#Cc1c(F)ccc2cc(O)cc(-c3ncc4c(N5CC6CCC(C5)N6)nc(OCCN5CCC(C)(COc6cc([C@H](C(=O)N7C[C@H](O)C[C@H]7C(=O)N[C@@H](C)c7ccc(-c8scnc8C)cc7)C(C)C)on6)CC5)nc4c3F)c12 [Compound 313, (2S,4R)-1-[(2R)-2-{3-[(1-{2-[(4-{3,8-diazabicyclo[3.2.1]octan-3-yl}-7-(8-ethynyl-7-fluoro-3-hydroxynaphthalen-1-yl)-8-fluoropyrido[4,3-d]pyrimidin-2-yl)oxy]ethyl}-4-methylpiperidin-4-yl)methoxy]-1,2-oxazol-5-yl}-3-methylbutanoyl]-4-hydroxy-N-[(1S)-1-[4-(4-methyl-1,3-thiazol-5-yl)phenyl]ethyl]pyrrolidine-2-carboxamide] | 80 to 100 | < 0.6 | –
CCc1cccc2cc(O)cc(-c3ncc4c(N5CC6CCC(C5)N6)nc(OC[C@@H]5CC[C@@H](COC(=O)N6CC(Oc7cc([C@H](C(=O)N8C[C@H](O)C[C@H]8C(=O)N[C@@H](C)c8ccc(-c9scnc9C)cc8)C(C)C)on7)C6)N5C)nc4c3F)c12 [Compound 294] | 80 to 100 | < 0.6 | –
CCc1cccc2cc(O)cc(-c3cc4nc(OC[C@]56CCCN5[C@H](COC(=O)N5CCN(c7cc(C(C(=O)N8C[C@H](O)C[C@H]8C(=O)N[C@@H](C)c8ccc(-c9scnc9C)cc8)C(C)C)on7)CC5)CC6)nc(N5CC6CCC(C5)N6)c4cn3)c12 (single isomer, unassigned) [Compound 266] | 80 to 100 | < 0.6 | –
CCc1cccc2cc(O)cc(-c3ncc4c(N5CC6CCC(C5)N6)nc(OC[C@]56CCCN5[C@H](COc5cc([C@H](C(=O)N7C[C@H](O)C[C@H]7C(=O)N[C@@H](C)c7ccc(-c8scnc8C)cc7)C(C)C)on5)CC6)nc4c3F)c12 [Compound 323, (2S,4R)-1-[(2R)-2-(3-{[(3S,7aR)-7a-{[(4-{3,8-diazabicyclo[3.2.1]octan-3-yl}-7-(8-ethyl-3-hydroxynaphthalen-1-yl)-8-fluoropyrido[4,3-d]pyrimidin-2-yl)oxy]methyl}-hexahydro-1H-pyrrolizin-3-yl]methoxy}-1,2-oxazol-5-yl)-3-methylbutanoyl]-4-hydroxy-N-[(1S)-1-[4-(4-methyl-1,3-thiazol-5-yl)phenyl]ethyl]pyrrolidine-2-carboxamide] | 60 to 80 | – | –
CCc1cccc2cc(O)cc(-c3ncc4c(N5CC6CCC(C5)N6)nc(OC[C@]56CCCN5[C@H](COC(=O)N5CCN(c7cc([C@@H](C(=O)N8C[C@H](O)C[C@H]8C(=O)N[C@@H](C)c8ccc(-c9scnc9C)cc8)C(C)C)on7)[C@H](C)C5)CC6)nc4c3F)c12 [Compound 131, [(3S,7aR)-7a-{[(4-{3,8-diazabicyclo[3.2.1]octan-3-yl}-7-(8-ethyl-3-hydroxynaphthalen-1-yl)-8-fluoropyrido[4,3-d]pyrimidin-2-yl)oxy]methyl}-hexahydro-1H-pyrrolizin-3-yl]methyl (3R)-4-{5-[(2S)-1-[(2S,4R)-4-hydroxy-2-{[(1S)-1-[4-(4-methyl-1,3-thiazol-5-yl)phenyl]ethyl]carbamoyl}pyrrolidin-1-yl]-3-methyl-1-oxobutan-2-yl]-1,2-oxazol-3-yl}-3-methylpiperazine-1-carboxylate] | < 20 | < 0.6 | –
CCc1cccc2cc(O)cc(-c3ncc4c(N5CC6CCC(C5)N6)nc(OCCN5CCC(F)(CN6CCN(c7cc([C@H](C(=O)N8C[C@H](O)C[C@H]8C(=O)N[C@@H](C)c8ccc(-c9ccnn9C)cc8)C(C)C)on7)CC6)CC5)nc4c3F)c12 [Compound 199, (2S,4R)-1-[(2R)-2-(3-{4-[(1-{2-[(4-{3,8-diazabicyclo[3.2.1]octan-3-yl}-7-(8-ethyl-3-hydroxynaphthalen-1-yl)-8-fluoropyrido[4,3-d]pyrimidin-2-yl)oxy]ethyl}-4-fluoropiperidin-4-yl)methyl]piperazin-1-yl}-1,2-oxazol-5-yl)-3-methylbutanoyl]-4-hydroxy-N-[(1S)-1-[4-(1-methyl-1H-pyrazol-5-yl)phenyl]ethyl] pyrrolidine-2-carboxamide] | 80 to 100 | < 0.6 | –
